We go through 23 compounds from US20060223837A1 (priority 2005, published 2006).

Test [1] has as its target T1, human VR1 (Homo sapiens, UniProt Q8NER1).
T1 construct: expressed in transfected cells; host or cells: HEK293
The test is described as follows: Human VR1 [3H]RTX binding assay. The following applies: for h Binding % I (1 μM) / inhibition at 1 µM: inhibition of [3H]RTX binding at 1 μM; for Ki: [3H]RTX binding, HEK293 membranes; for inhibition at 1 µM: read-out: h Binding % I (1 μM). Here is the method:
Compounds of the present invention were tested for their ability to inhibit the binding of tritiated resiniferatoxin ([^3H] RTX) to human VR1 receptors in a [^3H] RTX binding assay, as previously described (Zhang, Sui-Po. Improved ligand binding assays for vanilloid receptors. PCT Int. Appl. (2002), WO 0233411 A1 20020425 AN 2002:315209; Grant, Elfrida R., Dubin, Adrienne E., Zhang, Sui-Po, Zivin, Robert A., Zhong, Zhong Simultaneous intracellular calcium and sodium flux imaging in human VR1-transfected human embryonic kidney cells: a method to resolve ionic dependence of VR1-mediated cell death. J. Pharmacol. Exp. ther., 2002, 300(1), 9-17.) HEK293 cells were transfected with human VR1 and washed with Hank's balanced Salt Solution, dissociated with cell dissociation buffer (Sigma), and then centrifuged at 1000× g for 5 min. Cell pellets were homogenized in cold 20 mM HEPES buffer (pH 7.4), containing 5.8 mM NaCl, 320 mM sucrose, 2 mM MgCl2, 0.75 CaCl2 and 5 mM KCl and centrifuged at 1000× g for 15 min. The resultant supernate was then centrifuged at 40000× g for 15 min. The pelleted membranes were stored in a freezer at −80 C.
Approximately 120 μg protein/ml from membranes were incubated with indicated concentrations of [^3H]RTX in 0.5 ml of the HEPES buffer (pH 7.4) containing 0.25 mg/mL fatty acid-free bovine serum albumin at 37 C for 60 min. After cooling the reaction mixture to 4 C, 0.1 mg (x-acid glycoprotein was added to each sample, which was incubated at 4 C for 15 min and then centrifuged at 18500× g for 15 min. The tip of the microcentrifuge tube containing the pellet was cut off. Bound radioactivity was quantified by scintillation counting. Non-specific binding was assessed in the presence of 200 nM unlabeled resiniferatoxin.
Data were calculated according to the equation: % inhibtion=(total binding−binding)*100/(total binding−non specific binding).
Ki values were calculated based on an average of duplicate measurements using a GraphPad Prism program.

For test [2], the target named is T1, human VR1. The test is described as follows: Human VR1 functional assay (FLIPR intracellular Ca2+). The class given is cell-based. The following applies: for h % I (10 μM) / inhibition at 10 µM: inhibition of capsaicin response; for Emax at 12 µM / % Response Relative to EC80 of Capsaicin (12 μM): agonist response; for Emax at 12 µM: read-out: % Response Relative to EC80 of Capsaicin (12 μM); for inhibition at 10 µM: read-out: h % I (10 μM). Here is the method:
The functional activity of the test compounds was determined by measuring changes in intracellular calcium concentration using a Ca^2+-sensitive fluorescent dye and FLIPR™ technology. Increases in Ca^2+ concentration were readily detected upon challenge with capsaicin. HEK293 Cells expressing human VR1 were grown on poly-D-lysine coated 384 well black-walled plates (BD 354663) and 1 day later loaded with Calcium 3 Dye for 35 min at 37 C, 5% CO2 and then for 25 min at room temperature, and subsequently tested for agonist-induced increases in intracellular Ca^2+ levels using FLIPR™ technology. Cells were challenged with test compounds (at varying concentrations, which are indicated in parentheses in the heading of the table below) and intracellular Ca^2+ was measured for 5 min prior to the addition of capsaicin to all wells to achieve a final concentration of eliciting an approximate 80% maximal response ([…]). EC50 or IC50 values were determined from dose-response studies. Curves were generated using the average of quadruplicate wells for each data point.

Usually Ki stands for the dissociation constant of the complex between target and ligand, obtained from inhibition or displacement. Higher therefore signals a looser hold on the target.

T1 sequence (Q8NER1 whole entry): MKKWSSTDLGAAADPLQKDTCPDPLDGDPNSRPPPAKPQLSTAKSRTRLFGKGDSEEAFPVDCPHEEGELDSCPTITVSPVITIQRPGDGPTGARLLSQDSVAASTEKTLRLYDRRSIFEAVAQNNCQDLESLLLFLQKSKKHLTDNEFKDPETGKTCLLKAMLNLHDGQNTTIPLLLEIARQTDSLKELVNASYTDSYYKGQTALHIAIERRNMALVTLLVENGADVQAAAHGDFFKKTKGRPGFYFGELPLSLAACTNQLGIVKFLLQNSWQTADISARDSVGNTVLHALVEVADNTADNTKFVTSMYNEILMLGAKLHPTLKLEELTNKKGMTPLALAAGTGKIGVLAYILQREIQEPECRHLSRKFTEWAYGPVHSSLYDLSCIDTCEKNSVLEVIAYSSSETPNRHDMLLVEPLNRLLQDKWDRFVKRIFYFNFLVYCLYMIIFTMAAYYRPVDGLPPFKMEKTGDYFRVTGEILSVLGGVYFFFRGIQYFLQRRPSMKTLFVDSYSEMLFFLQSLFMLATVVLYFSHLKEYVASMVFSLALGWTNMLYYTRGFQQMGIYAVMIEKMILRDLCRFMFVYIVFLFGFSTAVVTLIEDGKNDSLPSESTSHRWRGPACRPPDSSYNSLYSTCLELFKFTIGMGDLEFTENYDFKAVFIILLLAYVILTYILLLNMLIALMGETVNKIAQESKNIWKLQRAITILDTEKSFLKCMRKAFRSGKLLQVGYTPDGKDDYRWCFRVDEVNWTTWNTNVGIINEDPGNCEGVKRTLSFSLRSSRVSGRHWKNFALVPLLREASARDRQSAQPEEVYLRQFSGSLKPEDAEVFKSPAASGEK

On to `CC(C)(C)c1ccc(CCC(=O)Nc2ccccc2-c2ccc(O)cc2)cc1` [Cpd 1], for which the “h Binding % I (1 μM)” value on human VR1 [1] is 1%. Also, the “h % I (10 μM)” value at human VR1 [2] was determined as 45%.

As for `CC(C)(C)c1ccc(CCC(=O)Nc2cccc(-c3ccc(O)cc3)c2)cc1` [Cpd 2], on human VR1 [1], the “h Binding % I (1 μM)” value is on record as 11%. Besides, the “h % I (10 μM)” value on human VR1 [2] stood at 41%.

With `CC(C)(C)c1ccc(CCC(=O)Nc2ccc(-c3ccc(O)cc3)cc2)cc1` [Cpd 3], at human VR1 [1], affinity was put at a Ki of 51 nM and the inhibition at 1 µM came out at 90%. For the same compound, on human VR1 [2], the Emax at 12 µM was determined as 65% and the inhibition at 10 µM was 44%.

As for `CC(C)(C)c1ccc(CCC(=O)Nc2ccccc2-c2cccc(O)c2)cc1` [Cpd 4], at human VR1 [1], the “h Binding % I (1 μM)” value was determined as 1%. In addition, the “h % I (10 μM)” value on human VR1 [2] is given as 35%.

With `CC(C)(C)c1ccc(CCC(=O)Nc2cccc(-c3cccc(O)c3)c2)cc1` [Cpd 5], the “h Binding % I (1 μM)” value at human VR1 [1] was found to be 4%. For the same compound, at human VR1 [2], the “h % I (10 μM)” value was 35%.

Consider `CC(C)(C)c1ccc(CCC(=O)Nc2ccc(-c3cccc(O)c3)cc2)cc1` [Cpd 6, 3-(4-tert-butyl-phenyl)-N-(3′-hydroxy-biphenyl-4-yl)-propionamide], for which, on human VR1 [1], the Ki amounted to 86 nM and the inhibition at 1 µM was 67%. Also, on human VR1 [2], the Emax at 12 µM came to 24%.

On to `CC(C)(C)c1ccc(CCC(=O)Nc2cccc(-c3ccccc3O)c2)cc1` [Cpd 9], for which the “h Binding % I (1 μM)” value at human VR1 [1] amounted to 1%. Moreover, at human VR1 [2], the “h % I (10 μM)” value is reported as 16%.

`CC(C)(C)c1ccc(CCC(=O)Nc2ccc(-c3ccccc3O)cc2)cc1` [Cpd 10]: at human VR1 [1], the affinity corresponds to a Ki of 50 nM and the “h Binding % I (1 μM)” value came out at 89%. Besides, on human VR1 [2], the “% Response Relative to EC80 of Capsaicin (12 μM)” value (“% Response Relative to EC80” for short) is on record as 67% and the “h % I (10 μM)” value was 40%.

With `CC(C)(C)c1ccc(CCC(=O)Nc2ccc(-c3cccc([N+](=O)[O-])c3)cc2)cc1` [Cpd 11], on human VR1 [1], the inhibition constant (Ki) was determined as 145 nM and the inhibition at 1 µM worked out at 84%. In addition, the inhibition at 10 µM on human VR1 [2] came to 36%.

As to `CC(C)(C)c1ccc(CCC(=O)Nc2ccc(-c3cccc(C(F)(F)F)c3)cc2)cc1` [Cpd 12], the “h Binding % I (1 μM)” value at human VR1 [1] is on record as 36%. Further, at human VR1 [2], the “% Response Relative to EC80” value is reported as 47%.

For the compound `CC(=O)c1cccc(-c2ccc(NC(=O)CCc3ccc(C(C)(C)C)cc3)cc2)c1` [Cpd 13], the “h Binding % I (1 μM)” value at human VR1 [1] amounted to 35%. In addition, the “h % I (10 μM)” value on human VR1 [2] came to 35%.

For the compound `CC(C)(C)c1ccc(CCC(=O)Nc2ccc(-c3cccc(Cl)c3)cc2)cc1` [Cpd 14], at human VR1 [1], the affinity corresponds to a Ki of 4620 nM and the inhibition at 1 µM was 55%. Moreover, the Emax at 12 µM on human VR1 [2] was determined as 53%.

In the case of `CC(C)(C)c1ccc(CCC(=O)Nc2ccc(-c3cccc(F)c3)cc2)cc1` [Cpd 15], on human VR1 [1], the “h Binding % I (1 μM)” value was found to be 41%. Moreover, on human VR1 [2], the “% Response Relative to EC80” value is 80%.

Regarding `CC(=O)Nc1cccc(-c2ccc(NC(=O)CCc3ccc(C(C)(C)C)cc3)c3ccncc23)c1` [Cpd 154], at human VR1 [1], the “h Binding % I (1 μM)” value was 15%.

`CC(C)(C)c1ccc(CCC(=O)Nc2ccc(-c3cccc(O)c3)c3cnccc23)cc1` [Cpd 155]: at human VR1 [1], the “h Binding % I (1 μM)” value is on record as 89%.

Regarding `CC(C)(C)c1ccc(CCC(=O)Nc2ccc(-c3ccncc3)c3cnccc23)cc1` [Cpd 156], on human VR1 [1], the “h Binding % I (1 μM)” value amounted to 33%.

In the case of `O=C(CCc1ccc(C(F)(F)F)cc1)Nc1ccc(-c2cccc(O)c2)c2cnccc12` [Cpd 158], the “h Binding % I (1 μM)” value at human VR1 [1] worked out at 77%.

Regarding `O=C(CCc1ccc(C(F)(F)F)cc1)Nc1ccc(-c2ccncc2)c2cnccc12` [Cpd 159], the “h Binding % I (1 μM)” value on human VR1 [1] came to 1%.

Regarding `CC(C)(C)c1ccc(CCC(=O)Nc2ccc(-c3c[nH]cn3)cc2)cc1` [Cpd 192], the “h Binding % I (1 μM)” value at human VR1 [1] was 50%.

As to `CC(C)(C)c1ccc(CCC(=O)Nc2ccc(-c3cnco3)cc2)cc1` [Cpd 193], on human VR1 [1], the “h Binding % I (1 μM)” value is listed as 49%.

Consider `Cc1cc(C)n(-c2ccc(NC(=O)CCc3ccc(C(C)(C)C)cc3)cc2)n1` [Cpd 196], for which the “h Binding % I (1 μM)” value at human VR1 [1] amounted to 76%.

Regarding `CC(C)(C)c1ccc(CCC(=O)Nc2ccc(-n3cnc(Cl)c3Cl)cc2)cc1` [Cpd 200], at human VR1 [1], the “h Binding % I (1 μM)” value was 100%.

Regarding `CC(C)(C)c1ccc(CCC(=O)Nc2ccc(-n3ccnc3)cc2)cc1` [Cpd 261], on human VR1 [1], the Ki stood at 311 nM.
